The subject of the assay is PaCa-9 PDAC patient tumor cells. Briefly: WST1 cell proliferation assay, PaCa-9 PDAC patient tumor cells. Format: cell-based, human. The settings on record: 10% FCS-DMEM. The method, then: PDA cell line (PANC-1 or HS766T) or patient cancer cells (PaCa9) were trypsinized with 1% trypsin in Hank's Balanced Salt Solution (HBSS), counted, washed, and resuspended in serum free AIM media (ThermoFisher Scientific, Waltham, MA) or complete Dulbecco's Modified Eagle Medium (DMEM) supplemented with 10% fetal bovine serum, […], 100 U/ml of penicillin G, and […] of streptomycin. Cells at a concentration of 2-4×10^4 cells/well in 100 μl culture medium were seeded in triplicate in 96 well plates, then cultured in a humidified incubator at 37° C. and 5% CO2. On the next day, cell supernatant was discarded and compounds (e.g., drugs) of the present disclosure in 200 μl medium were added with the concentrations indicated in the following Examples. After 72 hours of culture, cell proliferation reagent WST1 (20 μl/well, Sigma Aldrich Inc, St. […] The measured absorbance (OD value) was recorded and graphed and statistically analyzed using GraphPad Prism 8, t-test, or t-test with Bonferroni correction.
For orientation: Tetrazolium assays rely on reduction of a dye to a coloured formazan, in cell work by metabolically active cells.

Take `COc1ccc2c(c1OCc1ccccc1)C[C@@H](C(=O)O)N(C(=O)C(c1ccccc1)c1ccccc1)C2` [EMA401]: the “cell proliferation, WST1 absorbance (OD value, 450 nm), mean” value is, setting by setting: (EMA 10 μM, Table 3, 1 h, Medium/DMSO 3.571) 2.088; (EMA 10 μM, Table 4, 2 h, Medium/DMSO >3.60) 2.910; (EMA 50 μM, Table 3, 1 h, Medium/DMSO 3.571) 2.000; (EMA 50 μM, Table 4, 2 h, Medium/DMSO >3.60) 2.447; (EMA401 10 μM, Table 7A, 2×10^4 cells per well, control 3.535) 3.257; (EMA401 50 μM, Table 7A, 2×10^4 cells per well, control 3.535) 0.541.

These data come from patent publication US12527785B2, “Renin-angiotensin-aldosterone system (RAAS) inhibitors in the treatment of pancreatic ductal carcinoma” (OCHSNER CLINIC FOUNDATION, priority 2023, dated 2026).
